Test results taken from patent US20080280879A1, “SUBSTITUTED HETEROCYCLIC DERIVATIVES AND THEIR PHARMACEUTICAL USE AND COMPOSITIONS” (priority 2007, published 2008).
Converted amounts (≈) assume the structure as drawn.

Assays:
Assay type in all cases: cell-based, Staphylococcus aureus
[1] = system: Staph aureus 1146; experiment: MIC in Mueller-Hinton Broth with 50% pooled inactivated human serum, Assay 1, Table 12; settings: for MIC, column C: Staph aureus 1146, Assay 1, 50% human serum; for MIC: Staphylococcus aureus, 1146, Staph aureus 1146, Assay 1, 50% human serum, read-out: MIC, column C
Procedure, shortened: (§1)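 Testing followed the CLSI M7-A7 dilution standard in microtiter trays, with serum conditions using Mueller-Hinton Broth plus 50% pooled inactivated human serum. Values are the lowest concentrations with no macroscopically visible growth.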

[2] = system: Staph aureus 2812; experiment: MIC, microtiter broth dilution (CLSI M7-A7), Assay 1, Table 12 column E, no serum; settings: for MIC, column E: Staph aureus 2812, Assay 1, no serum; for MIC: Staphylococcus aureus, 2812, Staph aureus 2812, Assay 1, no serum
Procedure, shortened: as §1

[3] = system: Staph aureus 2811; experiment: MIC, microtiter broth dilution (CLSI M7-A7), Assay 1, Table 12 column D, no serum; settings: for MIC, column D: Staph aureus 2811, Assay 1, no serum; for MIC: Staphylococcus aureus, 2811, Staph aureus 2811, Assay 1, no serum
Procedure, shortened: as §1

[4] = system: Staph aureus 1146; experiment: MIC, microtiter broth dilution (CLSI M7-A7), Assay 1, Table 12 column B, no serum; settings: for MIC, column B: Staph aureus 1146, Assay 1, no serum; for MIC: Staphylococcus aureus, 1146, Staph aureus 1146, Assay 1, no serum
Procedure, shortened: as §1

[5] = system: Staph aureus 1095 MRSA; experiment: MIC, microtiter broth dilution (CLSI M7-A7), Assay 1, Table 12 column A, no serum; settings: Assay 1, no serum; for MIC: Staphylococcus aureus, MRSA
Procedure, shortened: as §1

COc1ccc2ncc(Cl)c(C(O)CC[C@@H]3CCN(C4CC(c5c(F)cccc5F)C4)C[C@@H]3C(=O)O)c2c1 (stereo partly drawn) [Example 214, (3R,4R)-4-[3-(3-chloro-6-methoxyquinolin-4-yl)-3-hydroxypropyl]-1-[3-(2,6-difluorophenyl)cyclobutyl]piperidine-3-carboxylic acid]
MIC, column C [1]: 2.00 µg/mL (≈ 3.67 µM) | MIC, column E [2]: <0.0625 µg/mL | MIC, column D [3]: <0.0625 µg/mL | MIC, column B [4]: <0.0625 µg/mL | MIC, column A [5]: <0.0625 µg/mL

3-{[2-(3-chloro-6-methoxyquinolin-4-yl)ethyl]amino}-1-(cis-3-phenylcyclobutyl)pyrrolidine-3-carboxylic acid [Example 113]
MIC, column C [1]: 16 µg/mL | MIC, column E [2]: 0.25 µg/mL | MIC, column D [3]: 0.125 µg/mL | MIC, column B [4]: <=.0625 μg/ml | MIC, column A [5]: 0.125 µg/mL

COc1ccc2ncc(Cl)c(CCNC3CCN(C4CC(c5ccccc5)C4)C(C(=O)O)C3)c2c1 (stereo not drawn) [Example 101, (2,4)-4-{[2-(3-chloro-6-methoxyquinolin-4-yl)ethyl]amino}-1-(3-phenylcyclobutyl)piperidine-2-carboxylic acid]
MIC, column C [1]: 2 µg/mL (≈ 4.05 µM) | MIC, column E [2]: <=.0625 μg/ml | MIC, column D [3]: <=.0625 μg/ml | MIC, column B [4]: 0.125 µg/mL (≈ 0.253 µM) | MIC, column A [5]: 0.125 µg/mL (≈ 0.253 µM)

COc1ccc2nccc([C@H](O)CC[C@@H]3CCN(C4CC(C5CCCC5)C4)C[C@@H]3C(=O)O)c2c1 (stereo partly drawn) [Example 46, (3R,4R)-1-(3-cyclopentylcyclobutyl)-4-[(3R)-3-hydroxy-3-(6-methoxyquinolin-4-yl)propyl]piperidine-3-carboxylic acid]
MIC [1]: 8 µg/mL (≈ 17.1 µM) | MIC [2]: 2 µg/mL (≈ 4.29 µM) | MIC [3]: 1 µg/mL (≈ 2.14 µM) | MIC [4]: 1 µg/mL (≈ 2.14 µM) | MIC [5]: 1 µg/mL (≈ 2.14 µM)

COc1ccc(F)c(C2CC(N3CC[C@@H](CC[C@H](O)c4ccnc5ccc(OC)cc45)[C@@H](C(=O)O)C3)C2)c1 (stereo partly drawn) [Example 172, (3R,4R)-1-[3-(2-fluoro-5-methoxyphenyl)cyclobutyl]-4-[(3S)-3-hydroxy-3-(6-methoxyquinolin-4-yl)propyl]piperidine-3-carboxylic acid]
MIC [1]: 32 µg/mL (≈ 61.2 µM) | MIC [2]: 2 µg/mL (≈ 3.83 µM) | MIC [3]: 1 µg/mL (≈ 1.91 µM) | MIC [4]: 2 µg/mL (≈ 3.83 µM) | MIC [5]: 4 µg/mL (≈ 7.65 µM)

COc1ccc2ncc(Cl)c(CCNC3(C(=O)O)CCN(C4CC(c5ccccc5)C4)CC3)c2c1 (stereo not drawn) [Example 100, 4-{[2-(3-chloro-6-methoxyquinolin-4-yl)ethyl]amino}-1-(3-phenylcyclobutyl)piperidine-4-carboxylic acid]
MIC [1]: > 64 µg/mL | MIC [2]: 0.5 µg/mL (≈ 1.01 µM) | MIC [3]: 0.25 µg/mL (≈ 0.506 µM) | MIC [4]: 0.5 µg/mL (≈ 1.01 µM) | MIC [5]: 0.5 µg/mL (≈ 1.01 µM)

COc1ccc2ncc(Cl)c(C(O)CC[C@@H]3CCN(C4CC(c5cc(F)ccc5F)C4)C[C@@H]3C(=O)O)c2c1 (stereo partly drawn) [Example 204, (3R,4R)-4-[3-(3-chloro-6-methoxyquinolin-4-yl)-3-hydroxypropyl]-1-[3-(2,5-difluorophenyl)cyclobutyl]piperidine-3-carboxylic acid]
MIC, column C [1]: 4.00 µg/mL (≈ 7.34 µM) | MIC, column E [2]: 0.250 µg/mL (≈ 0.459 µM) | MIC, column D [3]: 0.125 µg/mL (≈ 0.229 µM) | MIC, column B [4]: 0.125 µg/mL (≈ 0.229 µM) | MIC, column A [5]: 0.250 µg/mL (≈ 0.459 µM)

COc1ccc2nccc([C@@H](O)CC[C@@H]3CCN(C4CC(c5cc(C(F)(F)F)ccc5F)C4)C[C@@H]3C(=O)O)c2c1 (stereo partly drawn) [Example 62, (3R,4R)-1-{3-[2-fluoro-5-(trifluoromethyl)phenyl]cyclobutyl}-4-[(3S)-3-hydroxy-3-(6-methoxyquinolin-4-yl)propyl]piperidine-3-carboxylic acid]
MIC [1]: 64 µg/mL (≈ 114 µM) | MIC [2]: 2 µg/mL (≈ 3.57 µM) | MIC [3]: 1 µg/mL (≈ 1.78 µM) | MIC [4]: 2 µg/mL (≈ 3.57 µM) | MIC [5]: 4 µg/mL (≈ 7.14 µM)

COc1ccc2nccc(C(O)CC[C@@H]3CCN(C4CC(Cc5ccccc5)C4)C[C@@H]3C(=O)O)c2c1 (stereo partly drawn) [Example 103, (3R,4R)-1-(3-benzylcyclobutyl)-4-[3-hydroxy-3-(6-methoxyquinolin-4-yl)propyl]piperidine-3-carboxylic acid]
MIC [1]: 4 µg/mL (≈ 8.19 µM) | MIC [2]: 0.25 µg/mL (≈ 0.512 µM) | MIC [3]: 0.25 µg/mL (≈ 0.512 µM) | MIC [4]: 0.25 µg/mL (≈ 0.512 µM) | MIC [5]: 0.5 µg/mL (≈ 1.02 µM)

COc1ccc2ncc(Cl)c(C(O)CCC3(C(=O)O)CCN(C4CC(c5ccccc5)C4)CC3)c2c1 (stereo not drawn) [Example 141, 4-(3-(3-chloro-6-methoxyquinolin-4-yl)-3-hydroxypropyl)-1-(3-phenylcyclobutyl)piperidine-4-carboxylic acid]
MIC [1]: 32 µg/mL (≈ 62.9 µM) | MIC [2]: 1 µg/mL (≈ 1.96 µM) | MIC [3]: 0.5 µg/mL (≈ 0.982 µM) | MIC [4]: 1 µg/mL (≈ 1.96 µM) | MIC [5]: 2 µg/mL (≈ 3.93 µM)

COc1ccc2ncc(Cl)c(CCNC3(C(=O)O)CCCN(C4CC(c5cccc(F)c5)C4)CC3)c2c1 (stereo not drawn) [Example 155, 4-{[2-(3-chloro-6-methoxyquinolin-4-yl)ethyl]amino}-1-[3-(3-fluorophenyl)cyclobutyl] azepane-4-carboxylic acid]
MIC [1]: 4 µg/mL (≈ 7.6 µM) | MIC [2]: 0.125 µg/mL (≈ 0.238 µM) | MIC [3]: 0.25 µg/mL (≈ 0.475 µM) | MIC [4]: 0.125 µg/mL (≈ 0.238 µM) | MIC [5]: 1 µg/mL (≈ 1.9 µM)

COc1ccc2ncc(Cl)c(C(O)CC[C@@H]3CCN(C4CC(c5cc(F)ccc5F)C4)C[C@@H]3C(=O)O)c2c1 (stereo partly drawn) [Example 203, (3R,4R)-4-[3-(3-chloro-6-methoxyquinolin-4-yl)-3-hydroxypropyl]-1-[3-(2,5-difluorophenyl)cyclobutyl]piperidine-3-carboxylic acid]
MIC, column C [1]: 16.0 µg/mL (≈ 29.4 µM) | MIC, column E [2]: 0.125 µg/mL (≈ 0.229 µM) | MIC, column D [3]: 0.125 µg/mL (≈ 0.229 µM) | MIC, column B [4]: 0.125 µg/mL (≈ 0.229 µM) | MIC, column A [5]: 0.250 µg/mL (≈ 0.459 µM)

COc1ccc2nccc(C(O)CC[C@@H]3CCN(C4CC(C5CCOCC5)C4)C[C@@H]3C(=O)O)c2c1 (stereo partly drawn) [Example 50, (3R,4R)-4-[3-hydroxy-3-(6-methoxyquinolin-4-yl)propyl]-1-[3-(tetrahydro-2H-pyran-4-yl)cyclobutyl] piperidine-3-carboxylic acid]
MIC [1]: 32 µg/mL (≈ 66.3 µM) | MIC [2]: 64 µg/mL (≈ 133 µM) | MIC [3]: 64 µg/mL (≈ 133 µM) | MIC [4]: 32 µg/mL (≈ 66.3 µM) | MIC [5]: 32 µg/mL (≈ 66.3 µM)

COCc1noc(C2CC(N3CC[C@@H](CCC(O)c4ccnc5ccc(OC)cc45)[C@@H](C(=O)O)C3)C2)n1 (stereo partly drawn) [Example 169, (3R,4R)-4-[3-hydroxy-3-(6-methoxyquinolin-4-yl)propyl]-1-{3-[3-(methoxymethyl)-1,2,4-oxadiazol-5-yl]cyclobutyl}piperidine-3-carboxylic acid]
MIC [1]: > 64 µg/mL | MIC [2]: > 64 µg/mL | MIC [3]: > 64 µg/mL | MIC [4]: > 64 µg/mL | MIC [5]: > 64 µg/mL

COc1ccc2ncc(F)c(CCCC3(C(=O)O)CCN(C4CC(c5c(F)cccc5F)C4)C3)c2c1 (stereo not drawn) [Example 181, 1-[3-(2,6-difluorophenyl)cyclobutyl]-3-[3-(3-fluoro-6-methoxyquinolin-4-yl)propyl]pyrrolidine-3-carboxylic acid]
MIC, column C [1]: 16.0 µg/mL (≈ 32.1 µM) | MIC, column E [2]: <0.0625 µg/mL | MIC, column D [3]: <0.0625 µg/mL | MIC, column B [4]: <0.0625 µg/mL | MIC, column A [5]: <0.0625 µg/mL

COc1ccc2nccc(C(O)CC[C@@H]3CCN(C4CC(c5ccc(O)c(OC)c5)C4)C[C@@H]3C(=O)O)c2c1 (stereo partly drawn) [Example 33, (3R,4R)-1-[3-(4-hydroxy-3-methoxyphenyl)cyclobutyl]-4-[3-hydroxy-3-(6-methoxyquinolin-4-yl)propyl]piperidine-3-carboxylic acid]
MIC [1]: > 64 µg/mL | MIC [2]: > 64 µg/mL | MIC [3]: > 64 µg/mL | MIC [4]: > 64 µg/mL | MIC [5]: > 64 µg/mL

COc1ccc2nccc(C(F)CC[C@@H]3CCN(C4CC(c5ccccc5)C4)C[C@@H]3C(=O)O)c2c1 (stereo partly drawn) [Example 134, (3R,4R)-4-(3-fluoro-3-(6-methoxyquinolin-4-yl)propyl)-1-(3-phenylcyclobutyl)piperidine-3-carboxylic acid]
MIC, column C [1]: 4 µg/mL (≈ 8.39 µM) | MIC, column E [2]: <=.0625 μg/ml | MIC, column D [3]: <=.0625 μg/ml | MIC, column B [4]: <=.0625 μg/ml | MIC, column A [5]: <=.0625 μg/ml

COc1ccc2nccc(C(O)CC[C@@H]3CCN(C4CC5(CCCCC5)C4)C[C@@H]3C(=O)O)c2c1 (stereo partly drawn) [Example 56, (3R,4R)-4-[3-hydroxy-3-(6-methoxyquinolin-4-yl)propyl]-1-spiro[3.5]non-2-ylpiperidine-3-carboxylic acid]
MIC [1]: 2 µg/mL (≈ 4.29 µM) | MIC [2]: 0.5 µg/mL (≈ 1.07 µM) | MIC [3]: 0.5 µg/mL (≈ 1.07 µM) | MIC [4]: 0.5 µg/mL (≈ 1.07 µM) | MIC [5]: 2 µg/mL (≈ 4.29 µM)

COc1ccc2ncc(Cl)c(C(O)CC[C@@H]3CCN(C4CC(c5cc(F)ccc5F)C4)C[C@@H]3C(=O)O)c2c1 (stereo partly drawn) [Example 209, (3R,4R)-4-[3-(3-chloro-6-methoxyquinolin-4-yl)-3-hydroxypropyl]-1-[3-(2,5-difluorophenyl)cyclobutyl]piperidine-3-carboxylic acid]
MIC, column C [1]: 1.00 µg/mL (≈ 1.83 µM) | MIC, column E [2]: <0.0625 µg/mL | MIC, column D [3]: <0.0625 µg/mL | MIC, column B [4]: <0.0625 µg/mL | MIC, column A [5]: <0.0625 µg/mL

COc1ccc2nccc(C(O)CC[C@@H]3CCN(C4CC(c5ccc(C)cc5)C4)C[C@@H]3C(=O)O)c2c1 (stereo partly drawn) [Example 6, (3R,4R)-4-[3-hydroxy-3-(6-methoxyquinolin-4-yl)propyl]-1-[3-(4-methylphenyl)cyclobutyl]piperidine-3-carboxylic acid]
MIC [1]: 16 µg/mL (≈ 32.7 µM) | MIC [2]: 1 µg/mL (≈ 2.05 µM) | MIC [3]: 2 µg/mL (≈ 4.09 µM) | MIC [4]: 1 µg/mL (≈ 2.05 µM) | MIC [5]: 2 µg/mL (≈ 4.09 µM)

COc1ccc2nc(C)cc(C(O)CC[C@@H]3CCN(C4CC(c5c(F)cccc5F)C4)C[C@@H]3C(=O)O)c2c1 (stereo partly drawn) [Example 179, (3R,4R)-1-[3-(2,6-difluorophenyl)cyclobutyl]-4-[3-hydroxy-3-(6-methoxy-2-methylquinolin-4-yl)propyl] piperidine-3-carboxylic acid]
MIC [1]: 32 µg/mL (≈ 61 µM) | MIC [2]: 1 µg/mL (≈ 1.91 µM) | MIC [3]: 1 µg/mL (≈ 1.91 µM) | MIC [4]: 1 µg/mL (≈ 1.91 µM) | MIC [5]: 2 µg/mL (≈ 3.81 µM)
